Target: T1, human A2a receptor (Homo sapiens, UniProt P29274)
T1 construct: purchased Perkin-Elmer RBHA2AM400UA; host or cells: HEK293 cells (membranes)
Test: A2a competition binding assay, Scintillation Proximity technology
Settings: membranes from HEK293 cells expressing human A2a receptor; 0.5 nM tritiated ligand
In short: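 SPA competition: 0.5 nM tritiated pyrazolotriazolopyrimidine ligand displaced by compound at 3000 to 0.15 nM, 1 h room temperature, human A2a HEK293 membranes pretreated with adenosine deaminase, PBS/10 mM MgCl2 buffer. CGS15943 1 μM defined non-specific binding; EC50 converted to Ki via Cheng-Prusoff.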

T1 sequence (P29274 whole entry): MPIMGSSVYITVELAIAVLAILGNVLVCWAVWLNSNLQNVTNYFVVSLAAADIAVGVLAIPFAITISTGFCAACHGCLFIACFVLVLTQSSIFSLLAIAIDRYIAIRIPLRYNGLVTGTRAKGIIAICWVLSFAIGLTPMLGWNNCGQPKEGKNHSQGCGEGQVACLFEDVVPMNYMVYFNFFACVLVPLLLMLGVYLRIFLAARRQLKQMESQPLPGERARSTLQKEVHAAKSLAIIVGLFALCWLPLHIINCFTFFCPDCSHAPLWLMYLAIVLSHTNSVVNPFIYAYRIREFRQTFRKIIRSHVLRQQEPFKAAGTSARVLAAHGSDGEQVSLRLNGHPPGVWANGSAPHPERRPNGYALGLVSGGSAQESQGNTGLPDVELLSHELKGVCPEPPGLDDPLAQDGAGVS

Row | SMILES | EC50
1 | Cc1nc(C(=O)N[C@H]2CCc3cccnc32)c(N)nc1-c1ncco1 (single isomer, unassigned) [Ex-1B] | 2.9 nM

Same assay, conditions: membranes from HEK293 cells expressing human A2a receptor; Ki by Cheng-Prusoff equation

Row | SMILES | Ki
2 | Cc1cccc(CNC(=O)c2nc(C)c(-c3cnco3)nc2N)n1 [Ex-263, 3-amino-6-methyl-N-[(6-methylpyridin-2-yl)methyl]-5-(1,3-oxazol-5-yl)pyrazine-2-carboxamide] | 3.75 nM
3 | Cc1cnn(-c2nc(N)c(C(=O)NCc3cccc4cccnc34)nc2Cl)n1 [Ex-348, 3-amino-6-chloro-5-(4-methyl-2H-1,2,3-triazol-2-yl)-N-(quinolin-8-ylmethyl)pyrazine-2-carboxamide] | 10.1 nM
4 | Cc1nc(C(=O)NC2CCCC2F)c(N)nc1-c1ncco1 (stereo not shown) [Ex-210, 3-amino-N-(2-fluorocyclopentyl)-6-methyl-5-(1,3-oxazol-2-yl)pyrazine-2-carboxamide] | 1.42 nM
5 | Cc1nc(C(=O)NCc2cnc3ccccn23)c(N)nc1-c1ncco1 [Ex-96, 3-amino-N-(imidazo-[1,2-a]pyridin-3-yl-methyl)-6-methyl-5-(1,3-oxazol-2-yl)-pyrazine-2-carboxamide] | 12.8 nM
6 | Cc1nc(C(=O)NCc2cc(F)ccn2)c(N)nc1-c1ncco1 [Ex-61, 3-amino-N-[(4-fluoropyridin-2-yl)methyl]-6-methyl-5-(1,3-oxazol-2-yl)pyrazine-2-carboxamide] | 2.46 nM
7 | Cc1nc(C(=O)NC(C)c2ccccn2)c(N)nc1-c1ncco1 (single isomer, unassigned) [Ex-82A, 3-amino-6-methyl-5-(1,3-oxazol-2-yl)-N-(1-pyridin-2-ylethyl)pyrazine-2-carboxamide] | 2.48 nM
8 | Cc1nc(C(=O)NCc2cccc3c2cnn3CC(F)F)c(N)nc1-c1ncco1 [Ex-228, 3-amino-N-{[1-(2,2-difluoroethyl)-1H-indazol-4-yl]methyl}-6-methyl-5-(1,3-oxazol-2-yl)pyrazine-2-carboxamide] | 1.74 nM
9 | Cc1ccc(C(C)(C)O)nc1CNC(=O)c1nc(C)c(-c2ncco2)nc1N [Ex-236, 3-amino-N-{[6-(1-hydroxy-1-methylethyl)-3-methylpyridin-2-yl]methyl}-6-methyl-5-(1,3-oxazol-2-yl)pyrazine-2-carboxamide] | 1.61 nM
10 | Cc1nc(C(=O)NC2CCCc3cnccc32)c(N)nc1-c1ncco1 (single isomer, unassigned) [Ex-84B, 3-amino-6-methyl-5-(1,3-oxazol-2-yl)-N-(5,6,7,8-tetrahydroisoquinolin-5-yl)pyrazine-2-carboxamide] | 245 nM
11 | Nc1nc(-n2nccn2)c(Cl)nc1C(=O)NCc1cc2ccccc2cn1 [Ex-307, 3-amino-6-chloro-N-(isoquinolin-3-ylmethyl)-5-(2H-1,2,3-triazol-2-yl)pyrazine-2-carboxamide] | 21.6 nM
12 | Cc1nc(C(=O)NCc2cccc3cc[nH]c23)c(N)nc1-c1ncco1 [Ex-95, 3-amino-N-(1H-indol-7-ylmethyl)-6-methyl-5-(1,3-oxazol-2-yl)pyrazine-2-carboxamide] | 0.276 nM
13 | CCOCCc1ccc(C)c(CNC(=O)c2nc(C)c(-c3ncco3)nc2N)n1 [Ex-90, 3-amino-N-{[6-(2-ethoxyethyl)-3-methylpyridin-2-yl]methyl}-6-methyl-5-(1,3-oxazol-2-yl)pyrazine-2-carboxamide] | 4.95 nM
14 | Cc1nc(C(=O)NC2CCCc3cnccc32)c(N)nc1-c1ncco1 (single isomer, unassigned) [Ex-84A, 3-amino-6-methyl-5-(1,3-oxazol-2-yl)-N-(5,6,7,8-tetrahydroisoquinolin-5-yl)pyrazine-2-carboxamide] | 280 nM
15 | Cc1nc(C(=O)NCc2ncc(F)cc2F)c(N)nc1-c1ncco1 [Ex-62, 3-amino-N-[(3,5-difluoropyridin-2-yl)methyl]-6-methyl-5-(1,3-oxazol-2-yl)pyrazine-2-carboxamide] | 0.622 nM
16 | Cc1nc(C(=O)N[C@H]2CCc3cc(F)ccc32)c(N)nc1-c1ncco1 [Ex-200, 3-amino-N-[(1S)-5-fluoro-2,3-dihydro-1H-inden-1-yl]-6-methyl-5-(1,3-oxazol-2-yl)pyrazine-2-carboxamide] | 14.7 nM
17 | Cc1nc(C(=O)NC2CCc3ccccc3C2)c(N)nc1-c1ncco1 (single isomer, unassigned) [Ex-233B, 3-amino-6-methyl-5-(1,3-oxazol-2-yl)-N-(1,2,3,4-tetrahydronaphthalen-2-yl)pyrazine-2-carboxamide] | 0.572 nM
18 | Cc1nc(C(=O)NCc2nccnc2C(F)(F)F)c(N)nc1-c1ncco1 [Ex-215, 3-amino-6-methyl-5-(1,3-oxazol-2-yl)-N-{[3-(trifluoromethyl)pyrazin-2-yl]methyl}pyrazine-2-carboxamide] | 1.44 nM
19 | Cc1nc(C(=O)NCCCN2CCC(F)(F)C2)c(N)nc1-c1ncco1 [Ex-113, 3-amino-N-[3-(3,3-difluoropyrrolidin-1-yl)propyl]-6-methyl-5-(1,3-oxazol-2-yl)pyrazine-2-carboxamide] | 30.2 nM
20 | Cc1nc(C(=O)NCC(=O)c2ccc(F)cc2)c(N)nc1-c1ncco1 [Ex-112, 3-amino-N-[2-(4-fluorophenyl)-2-oxoethyl]-6-methyl-5-(1,3-oxazol-2-yl)pyrazine-2-carboxamide] | 14.5 nM
21 | Cc1nc(C(=O)NC2CCNc3ccccc32)c(N)nc1-n1nccn1 (stereo not shown) [Ex-280, 3-amino-6-methyl-N-(1,2,3,4-tetrahydroquinolin-4-yl)-5-(2H-1,2,3-triazol-2-yl)pyrazine-2-carboxamide] | 148 nM

Row | SMILES | Ki
22 | Cc1nc(C(=O)NCc2cccc(N(C)C)n2)c(N)nc1-c1ncco1 [Ex-21, 3-amino-N-{[6-(dimethylamino)pyridin-2-yl]methyl}-6-methyl-5-(1,3-oxazol-2-yl)pyrazine-2-carboxamide] | 0.934 nM
23 | Nc1nc(-n2nccn2)c(Cl)nc1C(=O)N[C@H](CO)Cc1c[nH]c2ccccc12 [Ex-325, 3-amino-6-chloro-N-[(1S)-2-hydroxy-1-(1H-indol-3-ylmethyl)ethyl]-5-(2H-1,2,3-triazol-2-yl)pyrazine-2-carboxamide] | 337 nM
24 | Nc1nc(-n2cccn2)c(Cl)nc1C(=O)NCc1ccc(F)cc1 [Ex-330, 3-amino-6-chloro-N-(4-fluorobenzyl)-5-(1H-pyrazol-1-yl)pyrazine-2-carboxamide] | 61.5 nM
25 | Cc1nc(C(=O)NC2CCCC(O)CC2)c(N)nc1-c1ncco1 (single isomer, unassigned) [Ex-165C, 3-amino-N-(4-hydroxycycloheptyl)-6-methyl-5-(1,3-oxazol-2-yl)pyrazine-2-carboxamide] | 7.64 nM
26 | Nc1nc(-n2cncn2)c(Cl)nc1C(=O)NCc1ccccc1C(F)(F)F [Ex-327, 3-amino-6-chloro-5-(1H-1,2,4-triazol-1-yl)-N-[2-(trifluoromethyl)benzyl] pyrazine-2-carboxamide] | 55.7 nM
27 | Cc1nc(C(=O)NCc2nccnc2C2CC2)c(N)nc1-c1ncco1 [Ex-184, 3-amino-N-[(3-cyclopropyl-pyrazin-2-yl)methyl]-6-methyl-5-(1,3-oxazol-2-yl)pyrazine-2-carboxamide] | 0.208 nM
28 | Cc1cnn(-c2nc(N)c(C(=O)NCc3ccc4[nH]ccc4c3)nc2Cl)c1 [Ex-350, 3-amino-6-chloro-N-(1H-indol-5-ylmethyl)-5-(4-methyl-1H-pyrazol-1-yl)pyrazine-2-carboxamide] | 630 nM
29 | Cc1cnn(-c2nc(N)c(C(=O)NCc3ncccc3C)nc2Cl)c1 [Ex-337, 3-amino-6-chloro-5-(4-methyl-1H-pyrazol-1-yl)-N-[(3-methylpyridin-2-yl)methyl]pyrazine-2-carboxamide] | 11.2 nM
30 | Cc1nc(C(=O)NCc2ncco2)c(N)nc1-c1ncco1 [Ex-13, 3-amino-6-methyl-5-(1,3-oxazol-2-yl)-N-(1,3-oxazol-2-ylmethyl)pyrazine-2-carboxamide] | 6.06 nM
31 | Cc1nc(C(=O)N[C@@H]2C[C@H]3CC[C@@H]2C3)c(N)nc1-c1ncco1 [Ex-213, 3-amino-N-[(1R,2R,4S)-bicyclo[2.2.1]hept-2-yl]-6-methyl-5-(1,3-oxazol-2-yl)pyrazine-2-carboxamide] | 0.42 nM
32 | CCn1cc2cccc(CNC(=O)c3nc(C)c(-c4ncco4)nc3N)c2n1 [Ex-216, 3-amino-N-[(2-ethyl-2H-indazol-7-yl)methyl]-6-methyl-5-(1,3-oxazol-2-yl)pyrazine-2-carboxamide] | 0.123 nM
33 | Cc1ccn(-c2nc(N)c(C(=O)NCc3ccccc3C(F)(F)F)nc2Cl)n1 [Ex-338, 3-amino-6-chloro-5-(3-methyl-1H-pyrazol-1-yl)-N-[2-(trifluoromethyl)benzyl] pyrazine-2-carboxamide] | 133 nM
34 | CCn1ncnc1CNC(=O)c1nc(C)c(-c2ncco2)nc1N [Ex-166, 3-amino-N-[(1-ethyl-1H-1,2,4-triazol-5-yl)methyl]-6-methyl-5-(1,3-oxazol-2-yl)pyrazine-2-carboxamide] | 0.599 nM
35 | COc1ccc(CNC(=O)c2nc(C)c(-c3ncco3)nc2N)nc1C(F)(F)F [Ex-55, 3-amino-N-{[5-methoxy-6-(trifluoromethyl)pyridin-2-yl]methyl}-6-methyl-5-(1,3-oxazol-2-yl)pyrazine-2-carboxamide] | 3.89 nM
36 | Cc1nc(C(=O)NCc2cccc3ccncc23)c(N)nc1-c1ncco1 [Ex-23, 3-amino-N-(isoquinolin-8-ylmethyl)-6-methyl-5-(1,3-oxazol-2-yl)pyrazine-2-carboxamide] | 0.293 nM
37 | COc1ccccc1CNC(=O)c1nc(C)c(-c2cnco2)nc1N [Ex-254, 3-amino-N-(2-methoxybenzyl)-6-methyl-5-(1,3-oxazol-5-yl)pyrazine-2-carboxamide] | 1.47 nM
38 | Cc1nc(C(=O)N[C@H]2CCc3cc(Cl)ccc32)c(N)nc1-c1ncco1 [Ex-222] | 9.22 nM
39 | Cc1nc(C(=O)NC(C)(C)c2ccncc2)c(N)nc1-c1cnco1 [Ex-261, 3-amino-6-methyl-N-(1-methyl-1-pyridin-4-ylethyl)-5-(1,3-oxazol-5-yl)pyrazine-2-carboxamide] | 1420 nM
40 | Cc1nc(C(=O)NCC2CC2)c(N)nc1-c1ncco1 [Ex-128, 3-amino-N-(cyclopropylmethyl)-6-methyl-5-(1,3,-oxazol-2-yl)pyrazine-2-carboxamide] | 12.5 nM

From patent US10472347B2, “Aminopyrazine compounds with A2A antagonist properties” (Merck Sharp & Dohme Corp., priority 2014, dated 2019)
